Reference: US7247456B2, “Preparation of fucosylated oligosaccharides” (Neose Technologies, Inc., priority 1998, dated 2007)
pIC50: −log10 of the molar value. Entries after “also recorded” stand apart in the source; their conditions may differ. Like-named read-outs stand apart in the source and are kept apart here.

How the values were obtained:
GDP-mannose dehydratase [1] = target: T1, GDP-mannose dehydratase (Escherichia coli, UniProt P0AC88); test: GDP-mannose dehydratase reverse phase HPLC activity assay; format: biochemical, E. coli; settings: for effect on GDP-mannose dehydratase activity: concentrations ranging from 1-20 mM
T1 construct: made in house; host or cells: E. coli JM101 (plasmid pTGK:GMD), French-press lysate supernatant
Experimental: (§1) To assay GDP-mannose dehydratase activity, a reverse phase HPLC assay was developed. […] […] Twenty μl of the assay mix was injected over the C18 column.
(§2) By comparing the peak area of the no enzyme control, corresponding to 200 nmole, the decrease in the peak area of GDP-mannose was used to directly measure the activity of GDP-mannose dehydratase by the following formulae: (No enzyme peak area)−(enzyme peak area)=(Peak area of GDP-mannose consumed) 1. (Peak area of GDP-mannose consumed)/(No enzyme peak area)=% of 200 nmole GDP-mannose consumed. 2.
(§3) To control for any carryover loss upon HPLC injection, 10 nmole of CTP was added to the sample to be analyzed.

YEF B = YEF B (Escherichia coli, UniProt P32055, E255D/L256V); settings: for YEF B Activity %: none = 100; for effect on YEF B activity: varying concentrations of metal ion
Experimental: To assay YEF B activity, a reverse phase HPLC assay was developed. An Aquesil C18 reverse phase column was set up in-line on a Beckman 126 solvent monitor. The column was eluted isocratically with 0.5M KH2PO4 over twenty minutes with a flow rate of 1 ml/min. A photodiode array detector was employed to monitor the elution scanning the 210-300 nm wavelength range.
A coupled assay was employed to assay YEF B activity. This was required since its substrate, GDP-4-keto-6-deoxymannose, is unstable and not commercially available. Twenty mUnit of GDP-mannose dehydratase was allowed to react with 480 nMole of GDP-mannose for 20 minutes under standard assay conditions as previously. […] The reaction was allowed to proceed for ten minutes at which point the reaction was stopped by freezing on dry ice. After thawing 10 μl aliquots were analyzed by reverse phase HPLC analysis. The amount of GDP fucose formed was calculated by analyzing a separate assay mix in the absence of GDP-mannose dehydratase to yield a 100% value for the absorption peak of GDP-mannose. […] to yield percentage of GDP-fucose formed. (% GDP-fucose)(nMole GDP-mannose in reaction)=nMole GDP-fucose formed.
The assay pH was varied from 6.5 to 8.0 using MES and Tris as buffers. The standard assay mix contained 20 mUnit GDP-mannose dehydratase, […] GDP-mannose, […], 10 mUnit glucose dehydrogenase (to recycle NADPH utilized by YEF B), 50 mM buffer at the appropriate pH and YEF B at appropriate dilution. The reaction was allowed to proceed for 15 minutes at 37° C. and immediately frozen on dry ice to stop the reaction. Ten μl aliquots were removed after thawing and analyzed by reverse phase HPLC.

GDP-mannose dehydratase [2] = target: T2, GDP-mannose dehydratase (Escherichia coli, UniProt P0AC88); test: GDP-mannose dehydratase reverse phase HPLC activity assay; format: biochemical, E. coli; settings: 10 mUnit alkaline phosphatase included in the assay
T2 construct: made in house; host or cells: E. coli JM101 (plasmid pTGK:GMD), French-press lysate supernatant
T2 sequence (P0AC88 whole entry, looked up): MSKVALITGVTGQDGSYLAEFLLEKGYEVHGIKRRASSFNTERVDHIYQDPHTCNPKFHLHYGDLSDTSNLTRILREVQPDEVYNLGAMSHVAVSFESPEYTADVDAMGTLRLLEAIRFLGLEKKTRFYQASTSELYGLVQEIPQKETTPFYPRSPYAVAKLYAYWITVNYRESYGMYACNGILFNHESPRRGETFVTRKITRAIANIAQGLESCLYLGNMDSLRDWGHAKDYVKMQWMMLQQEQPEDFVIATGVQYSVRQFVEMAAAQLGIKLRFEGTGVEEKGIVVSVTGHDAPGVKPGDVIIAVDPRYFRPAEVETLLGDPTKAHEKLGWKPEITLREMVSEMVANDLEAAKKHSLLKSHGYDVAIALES
Experimental: as §1, §2, §3

[3] = target: T3, E. coli K12 GDP-mannose dehydratase (GDP-mannose 4,6-dehydratase, GMD), recombinant wild type from pTGK:GMD (Escherichia coli, UniProt P0AC88); test: Cofactor (NADP+) dependence of GDP-mannose dehydratase (Table 5); format: biochemical
T3 construct: made in house; host or cells: E. coli JM101 (plasmid pTGK:GMD), supernatant of French press lysate
Experimental: (§4) C. Assay of GDP-Mannose Dehydratase
(§5) To assay GDP-mannose dehydratase activity, a reverse phase HPLC assay was developed. […] GDP-mannose dehydratase activity was determined by reacting GDP-mannose dehydratase extract with 480 nmole of GDP-mannose in 50 mM Tris pH 7.5, 0.15 mM NADP^+ (NADP^+ is absolutely required for GDP-mannose dehydratase activity) in a 100 μl reaction volume. Twenty μl of the assay mix was injected over the C18 column.
as §2, §3

GDP-mannose dehydratase [4] = settings: cited from earlier work
GDP-mannose dehydratase [5] = target: T4, GDP-mannose dehydratase (Sus scrofa, UniProt F1RX12); settings: cited from earlier work
T4 sequence (F1RX12 1-372): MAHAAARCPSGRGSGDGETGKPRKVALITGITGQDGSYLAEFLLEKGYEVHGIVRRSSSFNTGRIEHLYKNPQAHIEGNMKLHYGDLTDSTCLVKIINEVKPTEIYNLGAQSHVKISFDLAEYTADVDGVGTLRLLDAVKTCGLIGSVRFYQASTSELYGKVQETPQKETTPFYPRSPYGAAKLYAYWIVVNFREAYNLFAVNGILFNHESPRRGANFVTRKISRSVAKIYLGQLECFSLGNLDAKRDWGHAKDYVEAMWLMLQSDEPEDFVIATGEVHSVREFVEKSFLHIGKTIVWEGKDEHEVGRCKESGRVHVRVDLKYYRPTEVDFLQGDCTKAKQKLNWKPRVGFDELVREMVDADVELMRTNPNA

[6] = target: T3, E. coli K12 GDP-mannose dehydratase (GDP-mannose 4,6-dehydratase, GMD), recombinant wild type from pTGK:GMD; test: Inhibition of GDP-mannose dehydratase (GMD) by GDP-fucose, reverse phase HPLC assay (FIG. 5); format: biochemical
Experimental: as §4, §5, §2, §3
Since GDP-mannose dehydratase represents the first committed step in GDP-fucose biosynthesis it is possible that GDP-fucose is a feedback inhibitor of the enzyme. To determine if this is true, the standard assay was performed in the presence of increasing amounts of GDP-fucose. […]

[7] = target: T5, fucosyltransferase V (FT V) (Homo sapiens, UniProt Q11128); test: Inhibition of fucosyltransferase V; format: biochemical; settings: compared with GDP
T5 construct: printed for the preparative synthesis
T5 sequence (Q11128 1-374): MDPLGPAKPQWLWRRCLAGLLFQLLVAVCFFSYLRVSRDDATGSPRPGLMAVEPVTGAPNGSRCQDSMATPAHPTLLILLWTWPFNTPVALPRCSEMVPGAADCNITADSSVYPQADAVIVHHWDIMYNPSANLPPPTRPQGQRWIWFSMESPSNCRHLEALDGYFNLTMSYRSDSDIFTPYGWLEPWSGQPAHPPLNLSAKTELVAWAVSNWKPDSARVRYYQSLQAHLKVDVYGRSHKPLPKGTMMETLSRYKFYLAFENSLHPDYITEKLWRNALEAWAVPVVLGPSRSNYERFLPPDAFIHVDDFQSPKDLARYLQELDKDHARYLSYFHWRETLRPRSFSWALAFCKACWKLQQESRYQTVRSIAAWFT

fucosyltransferases = settings: cited from earlier work
fucosyltransferase V = target: T6, fucosyltransferase V (Homo sapiens, UniProt Q11128); settings: literature statement; cited from earlier work
T6 sequence (Q11128 1-374): T5 sequence (Q11128 1-374)

[8] = target: T3, E. coli K12 GDP-mannose dehydratase (GDP-mannose 4,6-dehydratase, GMD), recombinant wild type from pTGK:GMD; test: Linearity of the GDP-mannose dehydratase assay with time (product inhibition); format: biochemical; settings: linear up to 30 minutes, up to 90% of substrate consumed
Experimental: as §4, §5, §2
Samples were thawed and immediately injected over an aquasil reverse phase HPLC column.

Sequence of YEF B (P32055 whole entry E255D/L256V): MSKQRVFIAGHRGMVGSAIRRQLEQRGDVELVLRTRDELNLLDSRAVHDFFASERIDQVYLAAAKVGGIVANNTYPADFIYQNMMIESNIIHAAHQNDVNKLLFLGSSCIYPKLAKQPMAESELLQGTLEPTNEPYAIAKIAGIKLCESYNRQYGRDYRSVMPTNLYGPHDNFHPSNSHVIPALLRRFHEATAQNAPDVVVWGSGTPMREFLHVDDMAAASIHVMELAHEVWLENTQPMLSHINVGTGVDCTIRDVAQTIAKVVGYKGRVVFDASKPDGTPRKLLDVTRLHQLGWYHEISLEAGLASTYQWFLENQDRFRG

## [Cl-].[Cl-].[Mg+2] [MgCl2]
GDP-mannose dehydratase [1]; 1 mM metal ion
  % GDP-mannose Dehydratase Activity mUnit/ml: 560 mUnit/ml
GDP-mannose dehydratase [1]; 10 mM metal ion
  % GDP-mannose Dehydratase Activity mUnit/ml: 610 mUnit/ml
GDP-mannose dehydratase [1]; 20 mM metal ion
  % GDP-mannose Dehydratase Activity mUnit/ml: 590 mUnit/ml
GDP-mannose dehydratase [1]
  effect on GDP-mannose dehydratase activity: essentially no effect
YEF B; 1 mM metal ion
  YEF B Activity %: 110%
YEF B; 10 mM metal ion
  YEF B Activity %: 110%
YEF B
  effect on YEF B activity: somewhat stimulatory

## Alkaline Phosphatase
GDP-mannose dehydratase [2]
  % GDP-mannose dehydratase activity: not detected
GDP-mannose dehydratase [2]; listed as alkaline phosphatase
  % GDP-mannose dehydratase activity: severely attenuated

## NC(=O)c1ccc[n+]([C@@H]2O[C@H](COP(=O)(O)OP(=O)(O)OC[C@H]3O[C@@H](n4cnc5c(N)ncnc54)[C@H](O)[C@@H]3O)[C@@H](O)[C@H]2O)c1 [NAD, NAD^+]
[3]; cofactor at 1 mM
  % GDP-mannose dehydratase activity: not detected
[3]; in place of NADP+
  substitution for NADP+ as cofactor: will not substitute for NADP^+

## C[C@@H]1O[C@H](OP(=O)(O)OP(=O)(O)OC[C@H]2O[C@@H](n3cnc4c(=O)[nH]c(N)nc43)[C@H](O)[C@@H]2O)[C@@H](O)[C@H](O)[C@@H]1O [GDP-fucose]
GDP-mannose dehydratase [4]; at 50 μM GDP-fucose
  remaining catalytic activity of GDP-mannose dehydratase: 10%
GDP-mannose dehydratase [4]
  inhibition of GDP-mannose dehydratase: strongly inhibited
GDP-mannose dehydratase [5]; at 50 μM GDP-fucose
  catalytic activity of GDP-mannose dehydratase remaining: 10%
[6]; restated for the 0.2 kG scale production, quantity not given, read-out: inhibitor concentration ("40 μM inhibitor", see FIG. 5)
  pIC50: 4.40
[6]; standard assay: 480 nmole GDP-mannose, 50 mM Tris pH 7.5, 0.15 mM NADP+, 100 μl, increasing amounts of GDP-fucose, read-out: IC50
  pIC50: ~4.40

## Nc1nc2c(ncn2[C@@H]2O[C@H](COP(=O)(O)OP(=O)(O)OP(=O)(O)O)[C@@H](O)[C@H]2O)c(=O)[nH]1 [GTP]
[7]
  inhibitory potency relative to GDP (fold less potent): 10 ×

## C[C@H]1O[C@H](OP(=O)(O)OP(=O)(O)OC[C@H]2O[C@@H](n3cnc4c(=O)[nH]c(N)nc43)[C@H](O)[C@@H]2O)[C@@H](O)[C@@H](O)C1=O [GDP-4-keto-6-deoxymannose]
GDP-mannose dehydratase [1]; assay linear up to 90% of substrate consumed
  inhibition of GDP-mannose dehydratase by its product: does not inhibit the enzyme

## NC(=O)c1ccc[n+]([C@@H]2O[C@H](COP(=O)(O)OP(=O)(O)OC[C@H]3O[C@@H](n4cnc5c(N)ncnc54)[C@H](OP(=O)(O)O)[C@@H]3O)[C@@H](O)[C@H]2O)c1 [NADP, NADP^+]
[3]; cofactor at 1 mM
  activity at 1000 µM: 100%

## Nc1nc2c(ncn2[C@@H]2O[C@H](COP(=O)(O)OP(=O)(O)O)[C@@H](O)[C@H]2O)c(=O)[nH]1 [GDP]
GDP-mannose dehydratase [4]
  inhibition of GDP-mannose dehydratase: known to inhibit
fucosyltransferases
  inhibition of fucosyltransferases: known to inhibit
GDP-mannose dehydratase [5]; literature statement
  inhibition of GDP-mannose dehydratase: inhibit
Fucosyltransferase V
  inhibition of fucosyltransferases: inhibit; also recorded: potent inhibitor

## NC(=O)c1ccc[n+]([C@@H]2O[C@H](COP(=O)(O)OP(=O)(O)OC[C@H]3O[C@@H](n4cnc5c(N)ncnc54)[C@H](O)[C@@H]3O)[C@@H](O)[C@H]2O)c1 [NAD]
GDP-mannose dehydratase [1]; 1 mM cofactor
  % GDP-mannose dehydratase activity: not detected

## C[C@H]1O[C@H](OP(=O)(O)OP(=O)(O)OC[C@H]2O[C@@H](n3cnc4c(=O)[nH]c(N)nc43)[C@H](O)[C@@H]2O)[C@@H](O)[C@@H](O)C1=O [GDP-4-keto-6 deoxymannose, GDP-4-keto-6-deoxymannose]
[8]
  inhibition of GDP-mannose dehydratase by the product: does not inhibit the enzyme

## NC(=O)c1ccc[n+]([C@@H]2O[C@H](COP(=O)(O)OP(=O)(O)OC[C@H]3O[C@@H](n4cnc5c(N)ncnc54)[C@H](OP(=O)(O)O)[C@@H]3O)[C@@H](O)[C@H]2O)c1 [NADP]
GDP-mannose dehydratase [1]; 0.15 mM cofactor
  % GDP-mannose dehydratase activity: 100%
GDP-mannose dehydratase [1]; 1 mM cofactor
  % GDP-mannose dehydratase activity: 100%

## [Cl][Mn][Cl] [MnCl2]
GDP-mannose dehydratase [1]; 1 mM metal ion
  % GDP-mannose Dehydratase Activity mUnit/ml: 580 mUnit/ml
GDP-mannose dehydratase [1]; 10 mM metal ion
  % GDP-mannose Dehydratase Activity mUnit/ml: 570 mUnit/ml
GDP-mannose dehydratase [1]; 20 mM metal ion
  % GDP-mannose Dehydratase Activity mUnit/ml: 620 mUnit/ml
GDP-mannose dehydratase [1]
  effect on GDP-mannose dehydratase activity: essentially no effect
YEF B; 1 mM metal ion
  YEF B Activity %: 60%
YEF B; 10 mM metal ion
  YEF B Activity %: 25%
YEF B
  effect on YEF B activity: severely inhibited in a dose dependent manner
